Data taken from patent US11160787B2, “4-(4-chlorophenyl)-5-methylene-pyrrol-2-one and 5-methylene-4-(p-tolyl)pyrrol-2-one for use in the treatment of gram negative bacterial infections” (priority 2016, dated 2021).
“Also recorded” adds a separate entry of the source.

Experiments:
[1] = tested on: P. aeruginosa PAO1 pqsA::lux; test: pqsA::lux promoter fusion expression in P. aeruginosa PAO1-L biosensor (AQ-dependent quorum sensing); type: cell-based, Pseudomonas aeruginosa; conditions: for extent of inhibition of light output / pqsA expression at high concentrations: PAO1-L pqsA::lux; for IC50: Pseudomonas aeruginosa, PAO1, read-out: IC50 for inhibition of pqsA::lux expression
Method: The expression of rhl and las AHL- and the pqsA AQ-synthase genes was evaluated using lux-based lasl (FIG. 1), rhll (FIG. 2) and pqsA (FIG. 3) chromosomally integrated promoter fusions. Luminescence was quantified as a function of bacterial growth. The applicant further determined that none of the lactams is growth inhibitory at 100 μM using a large number of strains (figure not shown).
To determine the relative inhibitory activities (IC50s) of 4-(4-chlorophenyl)-5-methylene-pyrrol-2-one (Ref. 488) and 5-methylene-4-(p-tolyl)pyrrol-2-one (Ref. 491), dose response curves were constructed using the same biosensor strain (P. aeruginosa PAO1 pqsA::lux; Fletcher et al, 2007; Ilangovan et al 2013). This strain produces light in response to the endogenous production of AQs such as PQS and HHQ.

PqsR [2] = target: T1, PqsR (Pseudomonas aeruginosa, UniProt Q9I4X0); test: PQS-dependent expression of pqsA::lux in AQ-non producing PAO1-L ΔpqsA (PqsR antagonism); type: cell-based
T1 construct: By using the AQ-non producing P. aeruginosa strain PAO1-L ΔpqsA, pqsA::lux; endogenous in cells; host or cells: P. aeruginosa PAO1-L ΔpqsA, pqsA::lux
T1 sequence (Q9I4X0 whole entry): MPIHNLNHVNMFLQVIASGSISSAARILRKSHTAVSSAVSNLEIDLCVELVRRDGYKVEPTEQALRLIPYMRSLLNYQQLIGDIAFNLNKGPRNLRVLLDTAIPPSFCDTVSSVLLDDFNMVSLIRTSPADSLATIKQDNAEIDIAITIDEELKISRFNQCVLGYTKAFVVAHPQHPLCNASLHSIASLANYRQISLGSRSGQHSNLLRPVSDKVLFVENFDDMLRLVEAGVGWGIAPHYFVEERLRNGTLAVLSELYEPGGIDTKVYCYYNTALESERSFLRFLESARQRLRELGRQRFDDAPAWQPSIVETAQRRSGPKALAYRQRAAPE
Method: By using the AQ-non producing P. aeruginosa strain PAO1-L ΔpqsA, pqsA::lux, the EC50 value for the native PqsR agonist, PQS was calculated as ˜2 μM (Ilangovan et al. 2013).
The experiment shown in FIG. 8 was then repeated using 4-(4-chlorophenyl)-5-methylene-pyrrol-2-one (Ref. 488) concentrations of 0, 50, 100 and 200 μM.
A partial agonist is a molecule that can bind to and activate a receptor resulting in a non-complete response compared with a full agonist. […] This contrasts with its activity as an antagonist in the presence of 10 or 40 μM PQS.

[3] = tested on: P. aeruginosa strain PAO1-L; test: Pyocyanin production by PAO1-L, visually assessed; type: cell-based, Pseudomonas aeruginosa; conditions: 100 μM (vial 2), 8 h at 37° C., FIG. 5
From the text: Pyocyanin is a blue redox-active secondary metabolite and a putative signalling molecule in P. aeruginosa (Jayaseelan et al, 2014). The pyocyanin biosynthetic (phz) genes are regulated by QS and in part via the transcriptional regulator PqsR acting through PqsE (Rampioni et al 2011).
Although qualitative, this observation offers further confirmation of the inhibitory effects of lactam 4-(4-chlorophenyl)-5-methylene-pyrrol-2-one (Ref. 488) on AQ-dependent QS.

[4] = tested on: PAO1-N ΔpqsAHR pqsA'::lux; test: PqsR-independent expression of pqsA'::lux in PAO1-N ΔpqsAHR; type: cell-based, Pseudomonas aeruginosa; conditions: presence or absence of 40 μM PQS, FIG. 11
From the text: PQS is capable of weakly activating pqsA in the absence of PqsR via a mechanism that is not fully understood but appears to depend on the iron chelating properties of PQS. The aim of this experiment was to clarify whether lactam 4-(4-chlorophenyl)-5-methylene-pyrrol-2-one (Ref. 488) is also inhibitory for pqsA expression via the PqsR independent pathway. As previously described, the pqsA′::lux biosensor based on the triple mutant PAO1-N ΔpqsAHR cannot produce AQs and lacks pqsR but still responds to exogenous PQS. This response is however much weaker that the PqsR-dependent response.

PqsABCD = test: HHQ production by PAO1-N ΔpqsAHR pBBR-pqsABCD, TLC with AQ biosensor overlay; type: cell-based, Pseudomonas aeruginosa; conditions: 488 200 μM, overnight in LB, FIG. 13
From the text: To determine whether 4-(4-chlorophenyl)-5-methylene-pyrrol-2-one (Ref. 488) is capable of inhibiting the enzymes (PqsABCD) involved in AQ biosynthesis, the P. aeruginosa PAO1-N ΔpqsAHR was exploited. This mutant cannot produce AQs because the genes coding for the key biosynthetic enzymes (PqsA and PqsH) and regulation (PqsR) have been deleted. To restore AQ production in a PqsR-independent manner in PAO1-N ΔpqsA, the pqsABCD genes were introduced on a plasmid (pBBR pqsABCD; Niewerth et al. 2011). P. aeruginosa PAO1-N ΔpqsAHR and P. aeruginosa PAO1-N ΔpqsAHR pBBR pqsABCD were both incubated overnight in LB with and without 4-(4-chlorophenyl)-5-methylene-pyrrol-2-one (Ref. 488) (200 μM), resuspended to an OD600 1.0. The cultures were extracted with acidified ethyl acetate, the organic phase removed, dried and resuspended in methanol subjected to thin layer chromatography (TLC).
After chromatography using a dichloromethane-methanol mobile phase, the TLC plates were overlaid with a thin agar layer containing the AQ biosensor strain PAO1-L ΔpqsA CTX::pqsA′-luxCDABE (Fletcher et al. 2007) incubated and examined for reporter output (FIG. 13). […] The biosensor strain produces light (FIG. 13 panel C) and pyocyanin (FIG. 13 panel B) in response to AQs that bind to PqsR and activate the pqsA promoter.

PqsR [5] = target: T1, PqsR; conditions: read-out: EC50 of PQS for pqsA::lux expression; PAO1-L ΔpqsA pqsA::lux, without lactam; cited from earlier work

C=C1NC(=O)C=C1c1ccc(Cl)cc1 [Ref. 488, 4-(4-chlorophenyl)-5-methylene-pyrrol-2-one]
extent of inhibition of light output / pqsA expression at high concentrations [1]: completely inhibited light output; also recorded: fully knock out the PQS
IC50 [1]: 22 µM
relative inhibition of PqsR-dependent pqsA::lux promoter fusion in screening ([1]; lactams at 100 μM, FIG. 3): most potent inhibitor
mode of antagonism of PQS-dependent pqsA::lux expression (PqsR [2]; 488 at 0, 50, 100 and 200 μM, FIG. 9): competitive antagonist
restoration of light output by PQS in the presence of 488 (PqsR [2]; 488 at 50, 100, 200 μM, PAO1-L ΔpqsA, FIG. 9): fully restoring light output in the presence of 50 μM but not 100 μM or 200 μM
partial agonist activity (activation of pqsA expression) (PqsR [2]; PAO1-L ΔpqsA pqsA'::lux, concentrations up to 800 μM, FIG. 10): no partial agonist activity
fold increase of PQS EC50 caused by the lactam (PqsR [2]; fixed concentration of 488 (215 μM), range of PQS concentrations): ~15 fold
pyocyanin production in culture supernatant [3]: absence of green pigmentation
effect on PqsR-independent expression of pqsA [4]: small inhibitory effect
effect on HHQ biosynthesis (PqsABCD): did not inhibit HHQ biosynthesis

C=C1NC(=O)C=C1c1ccc(C)cc1 [Ref. 491, 5-methylene-4-(p-tolyl)pyrrol-2-one]
extent of inhibition of light output / pqsA expression at high concentrations [1]: did not inhibit pqsA expression as strongly; also recorded: did not give complete knock out at higher concentration
IC50 [1]: 44 µM

CCCCCCCc1[nH]c2ccccc2c(=O)c1O [PQS, 2-heptyl-3-hydroxy-4-(1H)-quinolone]
EC50 (PqsR [5]): ~2 µM
